The values below come from PMC6337391 (Molecules, 2019).

Where two headings read alike, the source gives them in different places.

Series [1] can be described thus: ABTS•+ decolorization assay. The method, boiled down: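 Compounds (10 mM DMSO stocks, diluted) added to ABTS•+ radical generated by potassium persulfate oxidation of ABTS. Decolorization followed as absorbance at room temperature, with Trolox as standard.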
The nature of series [2]: Inhibition of linoleic acid lipid peroxidation (AAPH). In outline:
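Sodium linoleate oxidation was initiated by AAPH in 0.05 M phosphate buffer, pH 7.4, at 37 °C, with test compound present and DMSO as blank. Conjugated diene hydroperoxide formation was followed as the absorbance increase at 234 nm.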

Series [3] has as its system L929 mouse fibroblasts cells. Kind of series: Cytotoxicity, propidium iodide fluorescence method. The following applies: 24-h incubation. The series is classed as cell-based. The method, boiled down:
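L929 cells in EMEM with 10% horse serum were allowed to attach for 24 h, then exposed to 1, 10, 20, 50 and 100 μM compound for 24 h at 37 °C. Cells were detached, stained with propidium iodide, and cell death was measured by flow cytometry.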

The target in series [4] is T1, soybean lipoxygenase (Glycine max, UniProt P08170).
T1 sequence (P08170 1-839): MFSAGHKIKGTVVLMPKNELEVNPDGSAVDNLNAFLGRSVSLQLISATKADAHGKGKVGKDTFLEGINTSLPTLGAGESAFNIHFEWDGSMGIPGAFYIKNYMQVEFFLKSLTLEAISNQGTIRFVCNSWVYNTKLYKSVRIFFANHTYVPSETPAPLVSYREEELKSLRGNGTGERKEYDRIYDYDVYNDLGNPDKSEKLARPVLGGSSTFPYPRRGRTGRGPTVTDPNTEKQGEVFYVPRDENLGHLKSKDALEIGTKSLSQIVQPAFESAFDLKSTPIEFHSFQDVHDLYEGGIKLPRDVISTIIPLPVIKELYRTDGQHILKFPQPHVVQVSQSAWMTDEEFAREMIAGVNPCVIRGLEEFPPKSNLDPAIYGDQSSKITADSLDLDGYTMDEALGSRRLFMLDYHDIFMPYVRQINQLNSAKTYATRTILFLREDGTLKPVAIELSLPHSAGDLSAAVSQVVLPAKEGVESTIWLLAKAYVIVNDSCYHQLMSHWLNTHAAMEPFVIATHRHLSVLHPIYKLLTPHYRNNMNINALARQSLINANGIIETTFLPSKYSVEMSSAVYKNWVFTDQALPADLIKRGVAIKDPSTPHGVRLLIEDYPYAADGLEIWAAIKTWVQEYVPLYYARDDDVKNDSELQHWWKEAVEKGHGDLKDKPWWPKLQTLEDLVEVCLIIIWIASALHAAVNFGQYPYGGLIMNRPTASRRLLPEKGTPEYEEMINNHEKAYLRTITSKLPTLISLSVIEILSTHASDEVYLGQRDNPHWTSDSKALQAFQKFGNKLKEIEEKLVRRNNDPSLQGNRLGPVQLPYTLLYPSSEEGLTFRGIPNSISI
Kind of series: biochemical. The format is biochemical. The method, boiled down:
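Soybean LOX (enzyme solution 1/9 × 10^−4 w/v in saline) incubated at room temperature with sodium linoleate ([…]) in tris buffer pH 9. Compounds added from DMSO stocks. IC50 derived from several concentrations.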

By IC50 is commonly meant the point on the concentration scale where inhibition reaches its midpoint. In the case of `O=C(/C=C/C=C/c1ccc([N+](=O)[O-])cc1)c1ccc(OCCCOc2ccc(C(=O)/C=C/C=C/c3ccc([N+](=O)[O-])cc3)cc2)cc1` [c11, (2E,2′E,4E,4′E)-1,1′-((propane-1,3-diylbis(oxy))bis(4,1-phenylene))bis(5-(4-nitrophenyl)penta-2,4-dien-1-one)], the “ABTS•+ Inhb. % @ 100 μM” value in series [1] is given as “No”. In addition, the “AAPH% @ 100 μM (anti-lipid peroxidation)” value in series [2] came to 68%. Moreover, in series [3], the “1 μM Average (% pi) ± σ” value was found to be 6.4 ± 0.4%, the “10 μM Average (% pi) ± σ” value turned out to be 19.07 ± 7.23%, the “20 μM Average (% pi) ± σ” value was 34.63 ± 0.31% and the “50 μM Average (% pi) ± σ” value is on record as 64.53 ± 3.07%. For the same compound, the “100 μM Average (% pi) ± σ” value in series [3] came out at 64.53 ± 3.07%. Further, in series [4], the IC50 amounted to 50 µM. In addition, in series [4] (soybean LOX), the “% LOX Inhb. @ 100 μM” value is recorded as 95%.

Take `O=C(/C=C/c1cccc2ccccc12)c1ccccc1O` [b4, (E)-1-(2-hydroxyphenyl)-3-(naphthalen-1-yl) prop-2-en-1-one]: in series [1], the “ABTS•+ Inhb. % @ 100 μM” value is “No”. Also, in series [2], the “AAPH% @ 100 μM (anti-lipid peroxidation)” value is given as 82%. The “% LOX Inhb. @ 100 μM” value in series [4] (soybean LOX) turned out to be 82%. In series [4] (soybean LOX, read-out: LOX IC50), the IC50 came to 65 µM.

`CC(=O)c1ccc(OCCOc2ccc(C(C)=O)cc2)cc1` [di, 1,1′-((ethane-1,2-diylbis(oxy))bis(4,1-phenylene))diethanone]: in series [1], the “ABTS•+ Inhb. % @ 100 μM” value is “No”. In addition, the “AAPH% @ 100 μM (anti-lipid peroxidation)” value in series [2] worked out at 22%. Besides, in series [3], the “1 μM Average (% pi) ± σ” value amounted to 4.94 ± 1.02%, the “10 μM Average (% pi) ± σ” value is reported as 9.05 ± 0.58%, the “20 μM Average (% pi) ± σ” value is 16.78 ± 5.61% and the “50 μM Average (% pi) ± σ” value worked out at 33.22 ± 9.65%. Besides, the “100 μM Average (% pi) ± σ” value in series [3] turned out to be 33.22 ± 9.65%. Moreover, the “% LOX Inhb. @ 100 μM” value in series [4] (soybean LOX) is reported as 12%.

Turning to `CC(=O)c1ccc(OCCCCCCCOc2ccc(C(C)=O)cc2)cc1` [dvi, 1,1′-((heptane-1,7-diylbis(oxy))bis-(4,1-phenylene)) diethanone], the “ABTS•+ Inhb. % @ 100 μM” value in series [1] is given as “No”. The “AAPH% @ 100 μM (anti-lipid peroxidation)” value in series [2] was 12%. Further, in series [3], the “1 μM Average (% pi) ± σ” value was found to be 0.37 ± 0.52%, the “10 μM Average (% pi) ± σ” value came out at 1.92 ± 1.02%, the “20 μM Average (% pi) ± σ” value was found to be 1.79 ± 1.53% and the “50 μM Average (% pi) ± σ” value was 2.55 ± 0.5%. In addition, the “100 μM Average (% pi) ± σ” value in series [3] is 2.55 ± 0.5%. For the same compound, the “% LOX Inhb. @ 100 μM” value in series [4] (soybean LOX) came to 17%.
